In US10392347B2, “2,4-dihydroxy-nicotinamides as APJ agonists” (BRISTOL-MYERS SQUIBB COMPANY, priority 2015, dated 2019) one finds EC50 data, which are given here for 23 compounds.

One may read the EC50 as the concentration at which the effect is half-maximal.

Like-named read-outs stand apart in the source and are kept apart here.

For the experiment, the target named is T1, human APJ receptor (Homo sapiens, UniProt P35414).
T1 construct: expressed in transfected cells
T1 sequence (P35414 1-380): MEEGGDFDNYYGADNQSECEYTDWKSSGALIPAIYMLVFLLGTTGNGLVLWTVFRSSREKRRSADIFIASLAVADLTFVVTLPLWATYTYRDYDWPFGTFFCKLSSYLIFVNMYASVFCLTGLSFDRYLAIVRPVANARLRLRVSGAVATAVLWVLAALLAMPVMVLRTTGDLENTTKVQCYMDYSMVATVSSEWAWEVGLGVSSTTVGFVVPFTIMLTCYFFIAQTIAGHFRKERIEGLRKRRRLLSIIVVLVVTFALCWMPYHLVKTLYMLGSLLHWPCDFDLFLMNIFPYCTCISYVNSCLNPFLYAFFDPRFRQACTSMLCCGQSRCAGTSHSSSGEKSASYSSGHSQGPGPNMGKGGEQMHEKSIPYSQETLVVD
Kind of experiment: Intracellular cAMP accumulation assay (APJ hcAMP, HTRF). The class given is cell-based. The settings on record: HEK293 cells stably expressing human APJ, forskolin-stimulated cAMP. In a few lines:
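Inhibition of forskolin (2 μM)-stimulated cAMP, with […], was measured after 30 min compound exposure at room temperature in stably transfected HEK293 cells. HTRF ratios were converted to cAMP via standard curve, and EC50 values came from variable-slope sigmoidal concentration-response fitting.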
(Changes in cAMP serve as a functional read-out for many G protein-coupled receptors.)

[1] abbreviates: Table 4, read-out: Human cAMP EC50.
Setting [2] is: Table 7, read-out: Human cAMP EC50.
The mark [3] stands for this setting: Table 1, read-out: APJ cAMP EC50.
The mark [4] stands for this setting: Table 3, read-out: APJ cAMP EC50.
[5] abbreviates: Table 5, read-out: Human cAMP EC50.

Take `CCCCc1nc(O)c(C(=O)N2CC[C@H](c3ccccc3)C2)c(O)c1-c1cc(OC)ccc1OC` [Example 97, 6-butyl-5-(2,5-dimethoxyphenyl)-3-[(3R)-3-phenylpyrrolidine-1-carbonyl]pyridine-2,4-diol]: the EC50 under setting [1] is 0.01 to 10 nM.
Take `CCCCc1nc(O)c(C(=O)N2CCN(Cc3cccc(Cl)c3Cl)CC2)c(O)c1-c1cc(OC)ccc1OC` [Example 103, 6-butyl-3-{4-[(2,3-dichlorophenyl)methyl]piperazine-1-carbonyl}-5-(2,5-dimethoxyphenyl)pyridine-2,4-diol]: under setting [1], the EC50 is 0.01 to 10 nM.
With `CCCCc1nc(O)c(C(=O)N2CCC(c3ncc(F)cc3F)C2)c(O)c1-c1cccc(C(=O)NC(C)C)c1` (centres unmarked) [Example 146, 3-{2-butyl-5-[3-(3,5-difluoropyridin-2-yl)pyrrolidine-1-carbonyl]-4,6-dihydroxypyridin-3-yl}-N-(propan-2-yl)benzamide], under setting [2], the EC50 lay in the range of 0.01 to 10 nM.
Turning to `CCCCc1nc(O)c(C(=O)N2CCC(Oc3ccc(Cl)cn3)CC2)c(O)c1-c1c(OC)cccc1OC` [Example 100, 6-butyl-3-{4-[(5-chloropyridin-2-yl)oxy]piperidine-1-carbonyl}-5-(2,6-dimethoxyphenyl)pyridine-2,4-diol], under setting [1], the EC50 lay in the range of 0.01 to 10 nM.
In the case of `CCCCc1nc(O)c(C(=O)N2CC[C@H](OCc3ccccc3)C2)c(O)c1-c1c(OC)cccc1OC` [Example 136, 3-[(3S)-3-(benzyloxy)pyrrolidine-1-carbonyl]-6-butyl-5-(2,6-dimethoxyphenyl)pyridine-2,4-diol], under “Table 6, read-out: Human cAMP EC50”, the EC50 lay within 0.01 to 10 nM.
As to `CCCCc1nc(O)c(C(=O)N2CCC(c3ccccc3Cl)CC2)c(O)c1-c1c(OC)cccc1OC` [Example 23, 6-butyl-3-[4-(2-chlorophenyl)piperidine-1-carbonyl]-5-(2,6-dimethoxyphenyl)pyridine-2,4-diol], the EC50 under setting [3] lay within 10 to 100 nM.
For the compound `CCCCc1nc(O)c(C(=O)N2CCC(O)(c3ccc(Cl)cc3)CC2)c(O)c1-c1c(OC)cccc1OC` [Example 47, 6-butyl-3-[4-(4-chlorophenyl)-4-hydroxypiperidine-1-carbonyl]-5-(2,6-dimethoxyphenyl)pyridine-2,4-diol], the EC50 under setting [3] fell in the range of 10 to 100 nM.
`CCCCc1nc(O)c(C(=O)N2CCN(c3ccccc3Cl)CC2)c(O)c1-c1c(OC)cccc1OC` [Example 57, 6-butyl-3-[4-(2-chlorophenyl)piperazine-1-carbonyl]-5-(2,6-dimethoxyphenyl)pyridine-2,4-diol]: under setting [3], the EC50 lay in the range of 10 to 100 nM.
For the compound `CCCCc1nc(O)c(C(=O)N(C)CCCCc2ccccc2)c(O)c1-c1c(OC)cccc1OC` [Example 2, 6-butyl-5-(2,6-dimethoxyphenyl)-2,4-dihydroxy-N-methyl-N-(4-phenylbutyl)pyridine-3-carboxamide], the EC50 under setting [3] is 100 to 300 nM.
As for `CCOCc1nc(O)c(C(=O)N2CCC(c3ccc(Cl)cn3)C2)c(O)c1-c1c(OC)cccc1OC` (centres unmarked) [Example 77, 3-[3-(5-chloropyridin-2-yl)pyrrolidine-1-carbonyl]-5-(2,6-dimethoxyphenyl)-6-(ethoxymethyl)pyridine-2,4-diol], the EC50 under setting [4] is 0.01 to 10 nM.
Regarding `CCCCc1nc(O)c(C(=O)N2CCC(c3ncccc3F)C2)c(O)c1-c1c(OC)cccc1OC` (centres unmarked) [Example 81, 6-butyl-5-(2,6-dimethoxyphenyl)-3-[3-(3-fluoropyridin-2-yl)pyrrolidine-1-carbonyl]pyridine-2,4-diol], the EC50 under setting [4] lay in the range of 0.01 to 10 nM.
Regarding `COc1cccc(OC)c1-c1c(-c2ccc(F)cc2)nc(O)c(C(=O)N2CCC(c3ncc(F)cc3F)C2)c1O` (centres unmarked) [Example 87, (3-(3,5-difluoropyridin-2-yl)pyrrolidin-1-yl)(5-(2,6-dimethoxyphenyl)-6-(4-fluorophenyl)-2,4-dihydroxypyridin-3-yl)methanone], under setting [4], the EC50 is 0.01 to 10 nM.
On to `CCCCc1nc(O)c(C(=O)N2CCC(c3ncc(F)cc3F)C2)c(O)c1-c1cccc(C(C)C)c1` (centres unmarked) [Example 141, 6-butyl-3-[3-(3,5-difluoropyridin-2-yl)pyrrolidine-1-carbonyl]-5-[3-(propan-2-yl)phenyl]pyridine-2,4-diol], for which the EC50 under setting [2] lay in the range of 0.01 to 10 nM.
Take `CCCCc1nc(O)c(C(=O)N2CCC(O)(c3cccnc3)CC2)c(O)c1-c1c(OC)cccc1OC` [Example 4, 6-butyl-5-(2,6-dimethoxyphenyl)-3-[4-hydroxy-4-(pyridin-3-yl)piperidine-1-carbonyl]pyridine-2,4-diol]: the EC50 under setting [3] is 100 to 300 nM.
In the case of `CCOCc1nc(O)c(C(=O)N2CCC(c3ccccc3F)C2)c(O)c1-c1c(OC)cccc1OC` (centres unmarked) [Example 127, 5-(2,6-dimethoxyphenyl)-6-(ethoxymethyl)-3-[3-(2-fluorophenyl)pyrrolidine-1-carbonyl]pyridine-2,4-diol], the EC50 under setting [5] was 0.01 to 10 nM.
With `CCCCc1nc(O)c(C(=O)N2CCN(c3ccc(OCCOC)cc3)CC2)c(O)c1-c1c(OC)cccc1OC` [Example 7, 6-butyl-5-(2,6-dimethoxyphenyl)-3-{4-[4-(2-methoxyethoxy)phenyl]piperazine-1-carbonyl}pyridine-2,4-diol], the EC50 under setting [3] lay in the range of 100 to 300 nM.
For the compound `CCCCc1nc(O)c(C(=O)N2CCN(Cc3cccc(F)c3)CC2)c(O)c1-c1c(OC)cccc1OC` [Example 45, 6-butyl-5-(2,6-dimethoxyphenyl)-3-{4-[(3-fluorophenyl)methyl]piperazine-1-carbonyl}pyridine-2,4-diol], the EC50 under setting [3] lay in the range of 0.01 to 10 nM.
As to `CCCCc1nc(O)c(C(=O)N2CCC(c3cc(-c4ccco4)n[nH]3)CC2)c(O)c1-c1c(OC)cccc1OC` [Example 20, 6-butyl-5-(2,6-dimethoxyphenyl)-3-{4-[3-(furan-2-yl)-1H-pyrazol-5-yl]piperidine-1-carbonyl}pyridine-2,4-diol], under setting [3], the EC50 was 10 to 100 nM.
Still for that read-out and setting: to `CCCCc1nc(O)c(C(=O)N2CCN(c3nc4ccccc4s3)CC2)c(O)c1-c1c(OC)cccc1OC` [Example 54, 3-[4-(1,3-benzothiazol-2-yl)piperazine-1-carbonyl]-6-butyl-5-(2,6-dimethoxyphenyl)pyridine-2,4-diol] belongs 10 to 100 nM.
The same measure, in the same setting: to `CCCCc1nc(O)c(C(=O)N2CCC(Cc3ccccc3)CC2)c(O)c1-c1c(OC)cccc1OC` [Example 14, 3-(4-benzylpiperidine-1-carbonyl)-6-butyl-5-(2,6-dimethoxyphenyl)pyridine-2,4-diol] belongs 0.01 to 10 nM; to `CCCCc1nc(O)c(C(=O)N2CCC(c3nc4ccccc4o3)CC2)c(O)c1-c1c(OC)cccc1OC` [Example 32, 3-[4-(1,3-benzoxazol-2-yl)piperidine-1-carbonyl]-6-butyl-5-(2,6-dimethoxyphenyl)pyridine-2,4-diol], 10 to 100 nM.
In the case of `COc1cccc(-c2c(-c3csc(C)n3)nc(O)c(C(=O)N3CCC(c4ncc(F)cc4F)C3)c2O)c1` (centres unmarked) [Example 129, 3-[3-(3,5-difluoropyridin-2-yl)pyrrolidine-1-carbonyl]-5-(3-methoxyphenyl)-6-(2-methyl-1,3-thiazol-4-yl)pyridine-2,4-diol], the EC50 under setting [5] lay within 0.01 to 10 nM.
As for `CCCCc1nc(O)c(C(=O)N2CCN(c3nccc(C(F)(F)F)n3)CC2)c(O)c1-c1c(OC)cccc1OC` [Example 13, 6-butyl-5-(2,6-dimethoxyphenyl)-3-{4-[4-(trifluoromethyl)pyrimidin-2-yl]piperazine-1-carbonyl}pyridine-2,4-diol], the EC50 under setting [3] fell in the range of 10 to 100 nM.
